Assay: Solubility in cosmetic solvents (Cétiol LC, Crodamol DA)
Type: physicochemical
Settings: solvent Cétinol LC; chromatographed product
Excerpt: Bezüglich der Lipophilität sind die erfindungsgemässen Verbindungen I den eingangs genannten substituierten Triazinen überlegen, indem alle Verbindungen I das im vorliegenden Fall nötige Kriterium, nämlich eine hohe Löslichkeit in kosmetischen Lösungsmitteln wie z.B. Deltyl extra (Isopropylmyristat), Arlanol E (PPG 15-Stearylether), Cétiol LC (Cocoylcapylat/-caprat) oder Crodamol DA (Diisopropyladipat) erfüllen, wie die nachfolgend beispielhaft aufgeführten Verbindungen der Formel I und deren Löslichkeiten in Cetiol LC und/oder in Crodamol DA zeigen (Tabelle II).

| Structure (SMILES) | Löslichkeit in Cétinol LC [%] |
| --- | --- |
| C[Si](C)(C)O[Si](C)(C)CCCCCOc1ccc(-c2nc(-c3ccc(OCCCCC[Si](C)(C)O[Si](C)(C)C)cc3O)nc(-c3ccc(OCCCCC[Si](C)(C)O[Si](C)(C)C)cc3O)n2)c(O)c1 [Beispiel 9-1] | > 35 |
| C[Si](C)(C)O[Si](C)(C)CCCCOc1ccc(-c2nc(-c3ccc(OCCCC[Si](C)(C)O[Si](C)(C)C)cc3O)nc(-c3ccc(OCCCC[Si](C)(C)O[Si](C)(C)C)cc3O)n2)c(O)c1 [Beispiel 10, 5,5',5''-Tris-[4-(1,1,1,3,3-pentamethyl-disiloxan-oxy)-butyl-1-oxy]-2,2',2''-(1.3.5)-triazin-2,4,6-triyl-tris-phenol] | 8 |

Reference: patent publication EP0863145A2, “Sunscreen compositions” (F. HOFFMANN-LA ROCHE AG, priority 1997, dated 1998)
